Results taken from ChEMBL document CHEMBL3769400, “Synthesis of minoxidil conjugates and their evaluation as HL-60 differentiation agents” (Bioorg Med Chem Lett, 2016).
Calls of active or inactive are those of the source. The calls are words filed in the database; no cut-off is given here.

Legend:
HL-60 [1] = test: Induction of cell differentiation in human HL60 cells assessed as increase in differentiation index at 10 uM measured after 3 days by NBT/MTT assay; format: functional, cell-based
HL-60 [2] = test: Induction of cell differentiation in human HL60 at 10 uM after 3 days by leishmans staining based microscopic analysis; format: functional
[3] = Induction of cell differentiation in human HL60 cells by NBT/MTT assay; format: functional, cell-based; conditions: HL-60
HL-60 [4] = test: Induction of cell differentiation in human HL60 cells assessed as increase in differentiation index at 10 uM measured after 5 days by NBT/MTT assay; format: functional, cell-based
PBMC = test: Cytotoxicity against human PBMC cells assessed as cell viability by MTT assay; format: cell-based
HL-60 [5] = test: Induction of cell differentiation in human HL60 assessed as reduction in cell number after 3 days at 10 uM by leishmans staining based microscopic analysis; format: functional
HL-60 [6] = test: Induction of cell differentiation in human HL60 cells assessed as condensation of nuclear chromatin after 3 days at 10 uM by leishmans staining based microscopic analysis; format: functional
HL-60 [7] = test: Induction of cell differentiation in human HL60 cells assessed as irregularity of nuclear and cytoplasmic shape after 3 days at 10 uM by leishmans staining based microscopic analysis; format: functional
HL-60 [8] = test: Induction of cell differentiation in human HL60 cells at 10 uM co-administered with MDA measured after 3 days by NBT/MTT assay; format: functional, cell-based
HL-60 [9] = test: Induction of cell differentiation in human HL60 cells at 10 uM co-administered with DAF measured after 3 days by NBT/MTT assay; format: functional, cell-based
HL-60 [10] = test: Induction of cell differentiation in human HL60 cells at 0.1 to 10 uM measured after 3 days by NBT/MTT assay; format: functional, cell-based
HL-60 [11] = test: Induction of cell differentiation in human HL60 cells at 0.1 to 10 uM measured after 5 days by NBT/MTT assay; format: functional, cell-based

| SMILES | Activity (HL-60 [1]) | IC50 [3] [µM] | Activity (PBMC) | also measured |
| --- | --- | --- | --- | --- |
| Nc1ccc(Cc2ccc(N)cc2)cc1 | inactive | – | – | Activity (HL-60 [2]): inactive |
| Nc1nc(N2CCCCC2)cc(NC(=O)NC(c2ccccc2)c2ccccc2)[n+]1[O-] | Active | 3.05 | Toxic | Activity (HL-60 [4]): Active |
| CCCCNC(=O)Nc1cc(N2CCCCC2)nc(N)[n+]1[O-] | – | > 10 | – | – |
| Nc1nc(N2CCCCC2)cc(NC(=O)NCc2ccccc2)[n+]1[O-] | – | > 10 | – | – |
| COc1ccc(C(NC(=O)Nc2cc(N3CCCCC3)nc(N)[n+]2[O-])c2ccc(OC)cc2)cc1 | – | > 10 | – | – |
| Nc1ccc2c(c1)Cc1cc(NC(=O)Nc3cc(N4CCCCC4)nc(N)[n+]3[O-])ccc1-2 | Active | 3.04 | Toxic | Activity (HL-60 [4]): Active; Activity (HL-60 [5]): Active; Activity (HL-60 [6]): Active; Activity (HL-60 [7]): Active |
| Nc1cc(N2CCCCC2)nc(N)[n+]1[O-] [MINOXIDIL] | – | > 10 | – | Activity (HL-60 [8]): inactive; Activity (HL-60 [2]): inactive; Activity (HL-60 [9]): inactive |
| NCCCCCCNC(=O)Nc1cc(N2CCCCC2)nc(N)[n+]1[O-].O=C(O)C(F)(F)F | – | 3.3 | Toxic | Activity (HL-60 [10]): Active; Activity (HL-60 [11]): inactive; Activity (HL-60 [5]): Active; Activity (HL-60 [6]): Active; Activity (HL-60 [7]): Active |
| NCCCNCCCCNCCCNC(=O)Nc1cc(N2CCCCC2)nc(N)[n+]1[O-].O=C(O)C(F)(F)F.O=C(O)C(F)(F)F.O=C(O)C(F)(F)F | Active | 3.02 | Toxic | Activity (HL-60 [4]): Active |
| N#CCCNC(=O)Nc1cc(N2CCCCC2)nc(N)[n+]1[O-] | – | > 10 | – | – |
| Nc1ccc(Cc2ccc(NC(=O)Nc3cc(N4CCCCC4)nc(N)[n+]3[O-])cc2)cc1 | Active | 3.02 | Toxic | Activity (HL-60 [4]): Active; Activity (HL-60 [5]): Active; Activity (HL-60 [6]): Active; Activity (HL-60 [7]): Active |
| CC1=C(/C=C/C(C)=C/C=C/C(C)=C/C(=O)O)C(C)(C)CCC1 | – | – | – | Activity (HL-60 [10]): Active; Activity (HL-60 [11]): Active |
| CCCCCCCCCCCCCC(=O)O[C@@H]1[C@@H](C)[C@@]2(O)[C@@H](C=C(CO)C[C@]3(O)C(=O)C(C)=C[C@@H]23)[C@@H]2C(C)(C)[C@]12OC(C)=O | – | – | – | Activity (HL-60 [2]): inactive |
| Nc1ccc2c(c1)Cc1cc(N)ccc1-2 | inactive | – | – | – |
| NCCCCNC(=O)Nc1cc(N2CCCCC2)nc(N)[n+]1[O-] | – | > 10 | – | – |
